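A five-concentration, 48-hour dose response in 96-well plates underlies each endpoint, interpolated linearly between surrounding concentrations. At the GI50, growth is halved.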 Active and inactive are the calls of the source. No stated cut-off is given here; in the data, active = GI50 up to about 1.1 µM and inactive = higher.
Key:
Experiment in all cases: inhibition of tumour cell growth, NCI panel, 48 h
HCT-116 = system: HCT-116
NCI-H226 = system: NCI-H226
SK-MEL-28 = system: SK-MEL-28
NCI-H460 = system: NCI-H460
786-0 = system: 786-0
NCI-H23 = system: NCI-H23
Hs-578T = system: Hs-578T
KM12 = system: KM12
MOLT-4 = system: MOLT-4
UACC-257 = system: UACC-257
SF-295 = system: SF-295
IGROV-1 = system: IGROV-1
HOP-62 = system: HOP-62
SK-MEL-5 = system: SK-MEL-5
A498 = system: A498
EKVX = system: EKVX
MDA-MB-231 = system: MDA-MB-231
OVCAR-3 = system: OVCAR-3

Measured: GI50

COC(=O)/C=C(\C)CC(O)/C=C(\C)CCC=C(C)C (stereo not drawn)
inactive: HCT-116 40.5 µM | NCI-H226 45 µM | SK-MEL-28 69 µM | NCI-H460 49.7 µM | 786-0 80.5 µM | NCI-H23 26.9 µM | Hs-578T 80 µM | KM12 40.4 µM | MOLT-4 18.7 µM | UACC-257 47.4 µM | SF-295 38.1 µM | IGROV-1 > 100 µM | HOP-62 > 100 µM | SK-MEL-5 19.5 µM | A498 34.7 µM | EKVX 46.1 µM | MDA-MB-231 > 100 µM | OVCAR-3 22.7 µM

N#C/N=C(/N)NCc1ccccc1
inactive: HCT-116 > 100 µM | NCI-H226 > 100 µM | SK-MEL-28 > 100 µM | NCI-H460 > 100 µM | 786-0 > 100 µM | NCI-H23 > 100 µM | KM12 > 100 µM | MOLT-4 > 100 µM | UACC-257 > 100 µM | SF-295 > 100 µM | IGROV-1 > 100 µM | HOP-62 > 100 µM | SK-MEL-5 > 100 µM | A498 > 100 µM | OVCAR-3 > 100 µM

CC(=O)OC1C/C(C)=C/[C@H](O)CC(C)/C=C/[C@@]2(C)CCC(C(C)(C)O)C12 (stereo partly drawn)
inactive: HCT-116 > 100 µM | NCI-H226 > 100 µM | SK-MEL-28 > 100 µM | NCI-H460 > 100 µM | 786-0 > 100 µM | NCI-H23 > 100 µM | KM12 > 100 µM | MOLT-4 > 100 µM | UACC-257 > 100 µM | SF-295 > 100 µM | IGROV-1 > 100 µM | HOP-62 > 100 µM | SK-MEL-5 > 100 µM | A498 > 100 µM | EKVX > 100 µM | OVCAR-3 > 100 µM

CCOc1ccccc1NC(=O)CCc1nnc2s/c(=C\CCc3ccccc3)c(=O)n12
inactive: HCT-116 > 100 µM | NCI-H226 > 100 µM | SK-MEL-28 > 100 µM | NCI-H460 > 100 µM | 786-0 > 100 µM | NCI-H23 > 100 µM | KM12 > 100 µM | MOLT-4 > 100 µM | UACC-257 > 100 µM | SF-295 > 100 µM | IGROV-1 > 100 µM | HOP-62 > 100 µM | SK-MEL-5 > 100 µM | A498 > 100 µM | OVCAR-3 > 100 µM

O=C1C=CC(S(=O)(=O)C2=C/C(=C/Nc3ccc(Cl)cc3)C(=O)C=C2)=C/C1=C/Nc1ccc(Cl)cc1
inactive: HCT-116 > 100 µM | NCI-H226 > 100 µM | SK-MEL-28 > 100 µM | NCI-H460 > 100 µM | 786-0 > 100 µM | NCI-H23 > 100 µM | KM12 > 100 µM | MOLT-4 > 100 µM | UACC-257 > 100 µM | SF-295 > 100 µM | IGROV-1 > 100 µM | HOP-62 > 100 µM | SK-MEL-5 > 100 µM | A498 > 100 µM | EKVX > 100 µM | OVCAR-3 > 100 µM

Cn1c(N)[n+](C(=O)OCc2ccccc2)c(=O)c2c1ncn2C(=O)OCc1ccccc1
inactive: HCT-116 52.2 µM | NCI-H226 18 µM | SK-MEL-28 > 100 µM | NCI-H460 > 100 µM | 786-0 30.1 µM | NCI-H23 46.2 µM | KM12 > 100 µM | MOLT-4 > 100 µM | UACC-257 > 100 µM | SF-295 49.5 µM | IGROV-1 > 100 µM | HOP-62 27 µM | SK-MEL-5 > 100 µM | A498 30.8 µM | EKVX 89.5 µM | OVCAR-3 > 100 µM

CCOC(=O)c1c(NNc2ccccc2)nc2ccccc2c1-c1ccccc1
inactive: HCT-116 21.8 µM | NCI-H226 28.2 µM | SK-MEL-28 34 µM | NCI-H460 28.4 µM | 786-0 31.7 µM | NCI-H23 19.5 µM | KM12 31.4 µM | MOLT-4 12.8 µM | UACC-257 29.7 µM | SF-295 42.6 µM | IGROV-1 42.4 µM | HOP-62 23.8 µM | SK-MEL-5 20.4 µM | A498 > 100 µM | EKVX 50.2 µM | OVCAR-3 21.1 µM

CCO/C([O-])=C(\C(=O)c1ccccc1)[n+]1c(C)sc2ccccc21
inactive: HCT-116 > 100 µM | NCI-H226 > 100 µM | SK-MEL-28 > 100 µM | NCI-H460 59.3 µM | 786-0 > 100 µM | NCI-H23 61.8 µM | KM12 > 100 µM | MOLT-4 > 100 µM | UACC-257 13.5 µM | SF-295 64.4 µM | IGROV-1 > 100 µM | HOP-62 > 100 µM | SK-MEL-5 16.7 µM | A498 > 100 µM | EKVX > 100 µM | OVCAR-3 > 100 µM

Reference: ChEMBL document CHEMBL1201862, “PubChem BioAssay data set” (2004)
